The values that follow come from patent publication US11505560B2, “Heterobifunctional compounds with improved specificity” (DANA-FARBER CANCER INSTITUTE, INC., priority 2017, dated 2022).

Experiment [1] addresses T1, IKZF1Δ-EGFP fusion protein (Homo sapiens, UniProt Q13422+Q96SW2, DEL197-239).
T1 construct: expressed in transfected cells; HEK293T cells
The experiment in a line: IKZF1Δ-EGFP fusion protein degradation reporter assay (flow cytometry). The experiment is classed as cell-based. The following applies: HEK293T cells. As for the experimental part: (§1) IKZF1A, BRD2BD1, BRD2BD2, BRD3BD1, BRD3BD2, BRD4BD1, and BRD4BD2 were subcloned into mammalian pcDNA5/FRT Vector (Ampicillin and Hygromycin B resistant) modified to contain MCS-eGFP-P2A-mCherry. […] Following 2-3 passage cycle FACS (FACSAria II, BD) was used to enrich for cells expressing eGFP and mCherry.
(§2) Signal from 5000 cells per well was acquired in singlicate or duplicate and the eGFP and mCherry florescence monitored. Data was analyzed using FlowJo (FlowJo, LCC). […] The eGFP protein abundance relative to mCherry was then quantified as a ten-fold amplified ratio for each individual cell using the formula: 10×eGFP/mCherry. The median of the ratio was then calculated per set, normalized to the median of the DMSO ratio, and is denoted as relative abundance. Standard deviation is calculated from four replicates (n=4) unless described otherwise.

Experiment [2] has as its target T2, IKZF1Δ-CRBN complex formation (Homo sapiens, UniProt Q13422+Q96SW2, DEL197-239).
T2 construct: made in house; host or cells: Trichoplusia ni High-Five insect cells (baculovirus)
In words: CRBN-IKZF1Δ binding assay (TR-FRET). The following applies: IKZF1Δ and DDB1ΔB-CRBN. Here is the method: Compounds in CRBN mutants dimerization assay were dispensed as described above into 200 nM His6-DDB1-His6-CRBNmutants or 200 nM His6-DDB1ΔB-His6-CRBNWT, 100 nM BRD4BD1-BODIPY-SpyCatcher and 2 nM terbium-anti-HIS Ab (Invitrogen) in a buffer containing 50 mM Tris pH 7.5, 100 mM NaCl, 0.1% Pluronic F-68 solution (Sigma) and 2% DMSO (4% DMSO final). Before TR-FRET measurements were conducted, the reactions were incubated for 15 min at RT. […] The TR-FRET signal of each data point was extracted by calculating the 520/490 nm ratio. […] The peak height of TR-FRET dBET dose response data was calculated in GraphPad Prism 7 using Area Under Curve analysis for three independent replicates (n=3) and the mean peak height and standard deviation calculated.
The standard deviation in IKZF1A TR-FRET compound titrations was calculated from three biological replicates (n=3) as an average of 5 technical replicates per well per experiment, or as an average of 5 technical replicates of single experiment for unlabelled protein titrations.

The test system of experiment [3] is IKZF1, IKZF3 and ZFP91 in MM.1s cells. The experiment in a line: Quantitative proteomics (TMT LC-MS3) in MM.1s cells. As to conditions: 1 μM, five hours. The experiment is classed as cell-based, human. As for the experimental part: A micro-BCA assay (Pierce) was used to determine the final protein concentration in the cell lysate. […] Proteins were precipitated using methanol/chloroform. In brief, four volumes of methanol were added to the cell lysate, followed by one volume of chloroform, and finally three volumes of water.

Experiment [4] relates to BRD2BD1, BRD2BD2, BRD3BD1, BRD3BD2, BRD4BD1, BRD4BD2 EGFP constructs. The experiment in a line: EGFP/mCherry reporter assay on individual BET bromodomains (flow cytometry). The experiment is classed as cell-based, human. Here is the method:
as §1, §2
On the technique in general: A reporter such as luciferase makes a cellular process visible.

Experiment [5] has as its system BRD2 and BRD3 in HEK293T cells. In words: Immunoblot for cellular degradation of BRD2 and BRD3. The experiment is classed as cell-based, human. Here is the method:
(§3) HEK293T cells were treated with increasing concentrations of ZXH-03-26.
On the technique in general: In western blotting, separated proteins are transferred to a membrane and probed.

The next experiment concerns the target T3, BRD4BD1-EGFP (Homo sapiens, UniProt O60885+Q96SW2).
T3 construct: expressed in transfected cells
In words: BRD4BD1-EGFP/mCherry reporter cellular degradation assay (flow cytometry). The experiment is classed as cell-based. The following applies: 5 h treatment. Here is the method:
Reporter cells that stably express BRD4BD1-EGFP followed by a P2A splice site separated mCherry, were treated with increasing concentrations of dBET molecules (FIG. 3A-FIG. 3F). […] IKZF1A, BRD2BD1, BRD2BD2, BRD3BD1, BRD3BD2, BRD4BD1, and BRD4BD2 were subcloned into mammalian pcDNA5/FRT Vector (Ampicillin and Hygromycin B resistant) modified to contain MCS-eGFP-P2A-mCherry. […] Following 2-3 passage cycle FACS (FACSAria II, BD) was used to enrich for cells expressing eGFP and mCherry.
as §2
A general note: In flow cytometry, cells or beads pass a laser one at a time.

For experiment [6], the target named is T4, endogenous BRD4 in HEK293T cells (Homo sapiens, UniProt O60885).
T4 construct: retains activity on endogenous full length BRD4; endogenous in cells; host or cells: HEK293T
The experiment in a line: Immunoblot for cellular degradation of endogenous BRD4. As to conditions: 5 hours. The experiment is classed as cell-based. Here is the method: as §3

“Also recorded” adds a separate entry of the source. A value given as a limit tells only on which side of the number the result lay.

T2 sequence (Q96SW2 whole entry, stated change not applied): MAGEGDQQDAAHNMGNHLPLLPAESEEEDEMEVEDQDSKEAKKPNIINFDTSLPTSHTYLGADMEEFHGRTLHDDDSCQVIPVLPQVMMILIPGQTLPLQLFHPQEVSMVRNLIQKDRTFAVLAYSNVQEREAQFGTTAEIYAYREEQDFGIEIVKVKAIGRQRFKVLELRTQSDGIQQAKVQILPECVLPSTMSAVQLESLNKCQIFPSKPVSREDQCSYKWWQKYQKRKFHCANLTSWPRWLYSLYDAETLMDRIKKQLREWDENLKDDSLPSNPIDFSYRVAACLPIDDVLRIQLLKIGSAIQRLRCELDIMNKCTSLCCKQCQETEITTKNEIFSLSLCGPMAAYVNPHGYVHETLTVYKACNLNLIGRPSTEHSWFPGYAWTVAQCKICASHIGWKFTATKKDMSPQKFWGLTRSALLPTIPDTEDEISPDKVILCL
T2 sequence (Q13422 with tags, fused parts or gaps DEL197-239 limits assumed): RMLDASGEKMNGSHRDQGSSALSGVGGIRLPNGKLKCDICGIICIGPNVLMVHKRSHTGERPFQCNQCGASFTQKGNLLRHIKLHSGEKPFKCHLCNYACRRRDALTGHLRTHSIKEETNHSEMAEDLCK

As for `COC(=O)C[C@@H]1N=C(c2ccc(Cl)cc2)c2c(sc(C(=O)NCCCCCCCCNc3cccc4c3C(=O)N(C3CCC(=O)NC3=O)C4=O)c2C)-n2c(C)nnc21` (stereo partly drawn) [dBET70, reference compound], the “cellular IKZF1 degradation (in words)” value in experiment [1] is “equipotent to lenalidomide”. Besides, the “induction of IKZF1-CRBN complex formation / IKZF1 binding (in words)” value in experiment [2] is reported as “pronounced complex formation”. In experiment [3], the “co-degradation of CRBN-lenalidomide neo-substrates IKZF1, IKZF3 and ZFP91” value is “pronounced co-degradation of CRBN-lenalidomide neo-substrates IKZF1, IKZF3 and ZFP91”.
For `COC(=O)C[C@@H]1N=C(c2ccc(Cl)cc2)c2c(sc(C(=O)NCCCCCNc3cccc4c3C(=O)N(C3CCC(=O)NC3=O)C4=O)c2C)-n2c(C)nnc21` (stereo partly drawn) [ZXH-03-26], the “concentrations at which degradation of BRD2 or 3 is spared” value in experiment [4] was > 10 µM. The “selectivity of degradation across BET bromodomains (in words)” value in experiment [4] (BRD2/3/4 BD1 and BD2) is “activity exclusively on the first bromodomain of BRD4; also recorded: selectively targets BRD4 for degradation and spares BRD2 and BRD3”. Further, in experiment [5], the “degradation of BRD2 and BRD3 (in words)” value is “inactive on BRD2 and BRD3”. Further, the “degradation of BRD4BD1 (in words)” value on BRD4BD1-EGFP is reported as “active on BRD4BD1”. Besides, the DC50 at BRD4BD1-EGFP (GFP/mCherry ratio, read-out: DC50/5h (half-maximal degradation after 5 hours of treatment), BRD4BD1) was ~5 nM. Besides, the “degradation of endogenous BRD4 (in words)” value in experiment [6] is on record as “degrades endogenous BRD4 with comparable efficacy compared to the best pan-BET degrader dBET6”.
